Tests used:
Assay type in all cases: cell-based, mouse
[1] = Drug concentration relative to IC50 / toxicity in fibroblasts; conditions: 0.3 μM
[2] = test system: GFP transgene on the inactive X (Xi-TgGFP fibroblasts); experiment: Assay for the reactivation of Xi-TgGFP (GFP RT-qPCR); conditions: single drug 0.3 μM, shControl
From the text: Xi-TgGFP (68-5-11) tail-tip fibroblasts (TTF) were initially derived from a single female pup, a daughter of a cross between aM castaneus male and aM musculus female, homozygous for an X-linked GFP transgene driven by a strong, ubiquitous promoter (58). The fibroblasts were immortalized by SV40 transformation, and clonal lines were derived from individual GFP-negative cells selected by fluorescence-activated cell sorting. In our experience, occasional clones with undetectable GFP expression nevertheless have the transgene located on the active X chromosome.
A cocktail of 3 shRNA viruses were used for infections (Table 2) followed with puromycin selection using standard methodology. In all the experiments, polyclonal knock down cells were used.
RNA was isolated by Trizol twice, with an intermittent TurboDNase treatment after the first isolation for 30 min at 37° C. One μg RNA was used for each of the RT+ and RT− reactions (Superscript III, Invitrogen) followed by the SYBR green qPCR using the primers listed in Table 3, with annealing temperature of 60° C. for 45 cycles. The relative efficiency of Xi-TgGFP reactivations was calculated by comparing to U1 snRNA as the internal control.

[3] = test system: Mecp2 on the Xi (Mecp2:luciferase fusion); experiment: Luciferase screen in Mecp2-Luc fusion Xi cell line
Procedure: To determine whether an LNA targeting XIST could also be used in addition to or as an alternative to an agent described herein, experiments were performed in the following cells: immortalized monoclonal MEFs with the reporter GFP (Bird) or LUC (Bedalov) fused to Mecp2, on the Xi or Xa, immortalized human fibroblasts from a […] with Rett syndrome (Coriell) and primary mouse cortical neurons.
The LNAs were designed with the Exiqon web tool. Xist LNA for mouse ([…]; SEQ ID NO:50) targets exon 1 between rep C and rep D. The human Xist LNAs target the following sequences: A1: […]; SEQ ID NO:51; A2: […]; SEQ ID NO:52; A3: […]; SEQ ID NO:53. […] 5-azadeoxycitidine (in DMSO) was added to a final concentration of 0.5 μM (except in the titration experiment 0.1-2.5 μM).
Luciferase experiments were performed on a Microbeta2 LumiJet with a luciferase assay system (Promega). […] Afterwards, the cells were trypsinized, washed, and lysed using cell culture lysis reagent. Normalized measurements were performed in 96 well plates, during 10 seconds after a 2 second incubation period.

[4] = trial 1, 20 uM LNA, 0.5 uM aza, 3 days, 1 10^5 cells/ml, 24-well

## Nc1ncn([C@@H]2O[C@H](CO)[C@@H](O)[C@H]2O)c(=O)n1 [5′-azacytidine, 4-amino-1-beta-D-ribofuranosyl-s-triazin-2(1H)-one]
[1]
  Toxicity at the concentration used: nontoxic
[2]
  GFP reactivation: minimally reactivated GFP

## Nc1ncn([C@H]2C[C@H](O)[C@@H](CO)O2)c(=O)n1 [AzadC, 5-aza-2′-deoxycytidine]
[3]; added to Xist LNA, 0.5 μM, reporter not specified
  Reactivation together with Xist LNA: Synergistic reactivation

## COc1cc([C@@H]2c3cc4c(cc3[C@@H](O[C@@H]3O[C@@H]5CO[C@@H](C)O[C@H]5[C@H](O)[C@H]3O)[C@H]3COC(=O)[C@H]23)OCO4)cc(OC)c1O [etoposide]
[2]
  GFP reactivation: minimally reactivated GFP

## xist: Xist LNA for mouse (TCTTGGTTACTAACAG; SEQ ID NO:50), targets exon 1 between rep C and rep D (LNA-modified, pattern not given here)
[3]; [4]
  LCPS: 0
  raw CPS: 29.8
